Consider two sequences from patent US20150258192A1, “COMPOSITIONS AND METHODS FOR PREVENTING OR TREATING CHRONIC LUNG ALLOGRAFT DYSFUNCTION (CLAD) AND IDIOPATHIC PULMONARY FIBROSIS (IPF)” (priority 2014, published 2015).

Series [1] concerns bleomycin-induced lung fibrosis in C57BL/6 mice. Nature of the series: Bleomycin mouse model of pulmonary fibrosis (IPF prevention model). The settings on record: for collagen levels in the lung (Masson's blue trichrome), dose-response: 25, 50 or 75 μg/kg daily IP, day 7-21; for collagen accumulation in the lungs (Masson's Trichrome staining) / development of fibrotic loci formation (H&E staining): daily day 7-21 post bleomycin; for total collagen deposition (from hydroxyproline) vs bleomycin control: post-inflammatory/pre-fibrotic stage. In kind it is in vivo. Here is the method: (§1) A mouse model of pulmonary fibrosis was generated by administering 0.025 U of bleomycin/PBS intratracheally to C57BL/6 mice. […] At 21 day post bleomycin delivery (for prevention model) or 28 post bleomycin delivery (for treatment model), groups of mice were sacrificed with a sodium pentobarbital injection (120 mg/kg) and the chest cavity was opened. The right mainstem bronchus was ligated and the right lung was removed. The trachea was cannulated and the left lung was perfused with 4% formaldehyde at 21 cm H2O pressure. The tissue blocks then were embedded in paraffin, and […] sections were prepared for staining. Sections from each animal were stained with hematoxylin and eosin (H&E) to visualize cells or with Masson's Trichrome staining to highlight collagen deposition. […] Stained sections were mounted onto a labeled glass slide with organic mounting medium.
Briefly, fibrotic loci in the lungs of the mice were induced by delivering intratracheally about 0.025 U of bleomycin (dissolved in PBS) to C57BL/6 mice. […] Briefly, mice were sacrificed with a sodium pentobarbital injection (120 mg/kg) and the chest cavity was opened. The right mainstem bronchus was ligated and the right lung was removed. The trachea was cannulated and the left lung was perfused with 4% formaldehyde at 21 cm H2O pressure. The tissue blocks then were embedded in paraffin, and […] sections were prepared, and stained with hematoxylin and eosin (H&E; for pathological examination) or Masson's Trichrome (for collagen staining)
Next, total collagen levels in the lungs of the bleomycin-injured mice (FIG. 12) were analyzed quantitatively by computing a constant conversion factor (7.5) for collagen from hydroxyproline concentrations (Neuman R. and Logan M, J Biol Chem., 186(2):549-56, 1950, incorporated by reference).
Next, the effect of increasing doses of MK2 peptide inhibitors on collagen deposition was examined in vivo using the bleomycin mouse model of idiopathic pulmonary fibrosis (prevention model). Briefly, C57-BL/6 mice were subjected to bleomycin injury at day 0.

Series [2] has as its system mesothelial cells. The settings on record: cited from earlier work.
The subject of series [3] is splenic T cells. Nature of the series: Autologous mixed lymphocyte reaction (MLR) of splenic T cells from treated bleomycin mice. In kind it is in vivo, mouse. From the text:
Recent studies highlighted a key role for T lymphocytes in bleomycin-induced fibrosis (Wilson, M. et al., The Journal of Experimental Medicine, 207(3): 535-552, 2010). […] Specifically, the ability of C57BL/6 purified antigen-presenting cells to induce proliferation in C57BL/6 T lymphocytes was examined in the assay.
C57-BL/6 mice were subjected to bleomycin injury at day 0. […] Splenic T cells were isolated and cultured alone or in the presence of autologous antigen presenting cells (APCs from C57-BL/6 mice) or stimulated with antibodies against CD3 (α-CD3) for 48 h. The cells then were radiolabeled with […] thymidine for 16 h and assessed for proliferation rates.
The viability of the T cells also was confirmed by stimulating the cells with antibodies against α-CD3, a polyclonal T cell activator. α-CD3 induced robust proliferation of the cells irrespective of the treatment group.

The subject of series [4] is IL-6. Description: Circulating inflammatory cytokines, bleomycin treatment model. Format: in vivo, mouse. The following applies: 24 hours after final administration.
The test system of series [5] is phospho-Thr^334-MAPKAPK2 (activated form of MK2). Nature of the series: Anti-phospho-Thr334-MAPKAPK2 staining of lung sections, bleomycin treatment model. In kind it is in vivo, mouse. The following applies: day 14-28. From the text:
C57-BL/6 mice were subjected to bleomycin injury at day 0. […] Original magnifications: 20×.
Briefly, C57-BL/6 mice were subjected to bleomycin injury at day 0. […] Formalin-fixed lung tissue sections were immunostained against phospho-Thr^334 MK2. Control staining was with biotinylated secondary IgG antibody. Streptavidin-conjugated horseradish peroxidase was used with 3,3′-diaminobenzidene as substrate and nuclei were counterstained with hematoxylin.

The test system of series [6] is bleomycin-induced lung fibrosis in C57BL/6 mice. Nature of the series: Bleomycin mouse model of pulmonary fibrosis (IPF treatment model). Format: in vivo. The settings on record: for lung architecture and collagen distribution (H&E, Masson's trichrome), day 28: daily day 14-28 post bleomycin. Here is the method: as §1
The classic bleomycin model, as depicted in FIG. 10, has been used widely in the literature in the pre-fibrotic stage to test efficacy of any intervention.
More specifically, fibrotic loci in the lungs were induced by delivering intratracheally about 0.025 U of bleomycin (dissolved in PBS) to C57BL/6 mice. […] Mice were sacrificed with a sodium pentobarbital injection (120 mg/kg) and the chest cavity was opened. The right mainstem bronchus was ligated and the right lung is removed. The trachea was cannulated and the left lung was perfused with 4% formaldehyde at 21 cm H2O pressure. The tissue blocks then were embedded in paraffin, and […] sections were prepared, and stained with hematoxylin and eosin (H&E; for pathological examination) or Masson's Trichrome (for collagen staining)
Next, collagen deposition was determined quantitatively by using the standard hydroxyproline assay with whole left lung. Total collagen (soluble and insoluble) deposition was assessed by analyzing hydroxyproline concentrations in murine lungs day 28 post bleomycin injury.

The test system of series [7] is bleomycin treated wild type (WT) mouse lung. Nature of the series: HA content in bleomycin treated mouse lung. The following applies: in vivo.
In series [8] the target is T1, human recombinant MK2 (h) (Homo sapiens, UniProt P49137).
T1 construct: purchased Millipore (IC50 Profiler Express service)
Description: Radiometric IC50 Determination. Format: biochemical. The following applies: 10-point curve; ATP within 15 μM of apparent Km. On the procedure: The IC50 value was estimated from a 10-point curve of one-half log dilutions. Peptide was supplied in dimethyl sulfoxide (DMSO). Specifically, human recombinant MK2 (h) (5-10 mU) was incubated with 50 mM sodium 3-glycerophosphate (pH=7.5), 0.1 mM EGTA, 30 μM of substrate peptide ([…]; SEQ ID NO: 21), 10 mM magnesium acetate, and 90 uM γ-^33P-ATP (final volume of 25 μL) for 40 minutes at room temperature. Then, the reaction was stopped with 3% phosphoric acid. 10 μL of this mixture was spotted onto a P30 filtermat and washed three times for five minutes with 75 mM phosphoric acid and once with methanol. Finally, the membrane was dried and a scintillation counter was used.
Specifically, in these assays, a positively charged substrate is phosphorylated with a radiolabeled phosphate group from an ATP if the kinase is not inhibited by an inhibitor peptide. The positively charged substrate then is attracted to a negatively charged filter membrane, quantified with a scintillation counter, and compared to a 100% activity control.

Series [9] deals with TNF-α. Nature of the series: Circulating inflammatory cytokines, bleomycin treatment model. The settings on record: 24 hours after final administration. Format: in vivo, mouse.
In series [10] the test system is fibroblasts from bleomycin treated murine hyaluronan synthase 2 (mHAS2) lung. Nature of the series: HA production of fibroblasts. Format: cell-based, mouse.

By pIC50 is commonly meant the IC50 on a negative log10 scale, so that one unit is a factor of ten.

pIC50: −log10 of the molar value. No end group written: not given here.

T1 sequence (P49137 whole entry): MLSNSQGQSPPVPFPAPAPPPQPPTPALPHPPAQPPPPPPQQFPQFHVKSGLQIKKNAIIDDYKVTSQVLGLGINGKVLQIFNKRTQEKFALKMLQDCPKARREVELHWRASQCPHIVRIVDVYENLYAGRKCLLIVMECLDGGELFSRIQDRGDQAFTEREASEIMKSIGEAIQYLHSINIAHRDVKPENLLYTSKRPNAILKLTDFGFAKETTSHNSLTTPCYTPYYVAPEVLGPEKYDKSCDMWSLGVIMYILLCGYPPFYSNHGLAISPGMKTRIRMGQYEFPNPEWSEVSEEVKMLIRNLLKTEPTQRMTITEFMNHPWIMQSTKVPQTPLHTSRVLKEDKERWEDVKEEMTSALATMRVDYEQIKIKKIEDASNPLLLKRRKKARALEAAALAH

Regarding YARAAARQARAKALARQLGVAA [MMI-0100], in series [1], the “collagen levels in the lung (Masson's blue trichrome), dose-response” value was “a decrease in collagen levels”. Also, the “collagen accumulation in the lungs (Masson's Trichrome staining)” value in series [1] (intraperitoneally) and in series [1] (via nebulization) was “reduced collagen accumulation” each time. The “development of fibrotic loci formation (H&E staining)” value in series [1] (intraperitoneally) and in [1] (via nebulization) was “significantly reduced” in each case. Moreover, the “total collagen deposition (from hydroxyproline) vs bleomycin control” value in [1] (nebulized) and in series [1] (systemic (IP)) was “significantly decreased” each time. The TFG-β-induced cytokine release entry in [2] is given as “inhibits”. The “toxicity (splenic T cell response to α-CD3)” value in series [3] (50 μg/kg/day) is reported as “no toxicity”. Also, the systemic distribution result in [3] (nebulized delivery, inferred from lack of splenic T cell response) is “little systemic distribution”. Besides, the “plasma level of IL-6” value in series [4] (intraperitoneal) and in series [4] (nebulized) was “significantly reduced” throughout. Further, the “phospho-Thr^334-MAPKAPK2 staining” value in [5] (intraperitoneal 50 μg/kg daily) and in series [5] (nebulized 50 μg/kg daily) was “decreased” throughout. Moreover, the “progression of collagen deposition (hydroxyproline assay, whole left lung), day 28” value in series [6] (50 μg/kg/day IP or nebulizer from day 14) was “significantly arrested further progression”. Also, the “lung architecture and collagen distribution (H&E, Masson's trichrome), day 28” value in [6] (intraperitoneally) and in series [6] (locally applied to the lung (nebulized)) was “rescued” in each case. In addition, the “hyaluronan (HA) content in lung” value in series [7] is “reduced”. Also, the negative logarithm of the IC50 (pIC50) in [8] was 4.66. The “plasma level of TNF-α” value in series [9] (intraperitoneal) and in series [9] (nebulized) was “significantly reduced” throughout. For the same sequence, in series [10], the “hyaluronan (HA) production” value was “reduced”.
With “YARAAARQARAKALNRQLGVA (Mammal) [MMI-0200]”, the “collagen levels in the lung (Masson's blue trichrome), dose-response” value in series [1] was “did not reduce, but rather increased”.
